Assay results reported in US9580498B2, “Monoclonal antibody for antagonizing and inhibiting binding of vascular endothelial growth factor to its receptor, and coding sequence” (SUZHOU STAINWEI BIOTECH INC., priority 2012, dated 2017).

Assays:
Format in all cases: in vivo
[1] = tested on: human Ls-174-T colon cancer; assay: Transplanted human Ls-174-T colon cancer in nude mice; settings: 5 mg/kg i.p. twice a week for 4 weeks; day 29
Experimental: Two nude mice were prepared to serve as tumor bearing mice. 1×10^7 of human Ls-174-T colon cancer cells (purchased from Cell Preservation Center of Shanghai Institutes for Biological Sciences, Chinese Academy of Sciences) at the log-growth cycle, or tumor mass in a size of about 1.5 mm^3, were inoculated subcutaneously into the right armpit of these two nude mice. […]
(§1) At the end of experiment, tumors were removed after euthanasia, and the tumor weight were measured. The treatment effect was measured by the ratio of tumor size in the testing group (T) versus the control group (C), i.e. T/C %.
After the first administration, both the long and short diameters of tumors were recorded twice a week, and tumor volume (V) and the relative tumor volume (RTV) were calculated. The calculation formula for RTV is: RTV=Vt/Vo, where Vt is the tumor volume measured at each time point (day), and Vo is the initial (before administration) tumor volume.
At day 29, each animal was euthanized, and its tumor was removed and weighted and the average tumor weight in each group was calculated.

[2] = tested on: human A673 rhabdomyosarcoma; assay: Transplanted human A673 rhabdomyosarcoma in nude mice; settings: 5 mg/kg i.p. twice a week for 3 weeks; day 22
Description: The establishment of this tumor method is basically the same as that in Example 10.
(§2) Nude mice were inoculated with human A673 rhabdomyosarcoma. When the tumor volume reached about 50-100 mm^3, a screening was done and those mice bearing tumors too small or too large in size were excluded. The selected mice were then randomly divided into different groups for different doses of drugs
Dividing the above nude mice inoculated with the human A673 rhabdomyosarcoma into the following six groups (6 mice/group) for administration, intraperitoneally injecting twice a week successively for 3 weeks, and ending the test on the 22nd day (D22).
as §1
(§3) After the first administration, the long and short diameters of the tumor were measured twice a week, and the tumor volume (V) and the relative tumor volume RTV thereof (Vt/VO) were calculated.
At day 22, each animal was euthanized, and its tumor was removed and weighted and the average tumor weight in each group was calculated.

[3] = tested on: human MDA-MB-231 breast cancer; assay: Transplanted human MDA-MB-231 breast cancer in nude mice; settings: 5 mg/kg i.p. twice a week for 5 weeks; day 36
Description: The tumor model establishment is basically the same as that in Example 10.
as §2, with “MDA-MB-231 breast cancer.” for “A673 rhabdomyosarcoma.”
The above nude mice inoculated with human MDA-MB-231 breast cancer were divided into the following five treatment groups (7 mice/group). Antibodies were injected intraperitoneally twice a week for 5 weeks, and ending the test on the 36th day (D36).
as §1, §3
At day 36, each animal was euthanized, and its tumor was removed and weighted and the average tumor weight in each group was calculated.

[4] = tested on: human HCT-8 colon cancer; assay: Transplanted human HCT-8 colon cancer in nude mice; settings: 5 mg/kg i.p. twice a week for 4 weeks; day 30
Description: The establishing method is basically the same as that in Example 10.
Observing the tumor growth of the nude mice inoculated with the human HCT-8 colon cancer and, when the tumor volume is about 50-100 mm^3, screening according to the size of the tumor volume, with the too large tumor and minor tumor not selected.
The above nude mice inoculated with human HCT-8 colon cancer were divided into the following seven groups (8 mice/group) for administration, intraperitoneally injecting twice a week successively for 4 weeks, and ending the test on the 30th day (D30).
as §1
After the first treatment, the long and short diameters of the tumor were measured twice a week, and the tumor volume V and the relative tumor volume RTV thereof (Vt/VO) were calculated
At day 30, each animal was euthanized, and its tumor was removed and weighted and the average tumor weight in each group was calculated.

Compound	average tumor weight [1] [g]	tumor weight inhibition rate [1] [%]	average tumor weight [2] [g]	tumor weight inhibition rate [2] [%]	average tumor weight [3] [g]	tumor weight inhibition rate [3] [%]	average tumor weight [4] [g]	tumor weight inhibition rate [4] [%]
Avastin: humanized anti-VEGF monoclonal antibody drug developed and produced by Roche/Genentech [reference compound]	0.767	74.05	3.323	61.92	0.543	38.99	–	–
N.N.[Cl][Pt][Cl] [cisplatin, reference compound]	–	–	–	–	–	–	1.201	25.29
